Test results reported in US8349841B2, “Vinyl-aryl derivatives for inflammation and immune-related uses” (Synta Pharmaceuticals Corp., priority 2007, dated 2013).
Counter-ions that a name gives are not always drawn.

system: IL-2 production; experiment: Inhibition of IL-2 production in PHA-activated Jurkat cells (ELISA); assay type: cell-based; details: Homo sapiens, PHA 2.5 μg/mL, 20 hours at 37° C., IL-2 ELISA
Experimental: Jurkat cells were placed in a 96 well plate (0.5 million cells per well in 1% FBS medium) then a test compound of this invention was added at different concentrations. After 10 minutes, the cells were activated with PHA (final concentration 2.5 μg/mL) and incubated for 20 hours at 37° C. under CO2. The final volume was 200 μL. Following incubation, the cells were centrifuged and the supernatants collected and stored at −70° C. prior to assaying for IL-2 production. A commercial ELISA kit (IL-2 Eli-pair, Diaclone Research, Besancon, France) was used to detect production of IL-2, from which dose response curves were obtained. The IC50 value was calculated as the concentration at which 50% of maximum IL-2 production after stimulation was inhibited versus a non-stimulation control.

Row | IC50 [nM] | SMILES
1 | 30 | CCOC(=O)N1CCC(C)=C(c2ccc(NC(=O)c3c(F)cccc3F)nc2)C1 [Compound 1, ethyl 3-(6-(2,6-difluorobenzamido)pyridin-3-yl)-4-methyl-5,6-dihydropyridine-1(2H)-carboxylate]
2 | 38 | CC1=C(c2cnc(NC(=O)c3c(F)cccc3F)cn2)CN(c2ncccn2)CC1 [Compound 2, 2,6-difluoro-N-(5-(4-methyl-1-(pyrimidin-2-yl)-1,2,5,6-tetrahydropyridin-3-yl)pyrazin-2-yl)benzamide hydrochloride]
3 | 66 | CCOC(=O)N1CCC(Cl)=C(c2ccc(NC(=O)c3c(F)cccc3F)cc2)C1 [Compound 6, ethyl 4-chloro-3-(4-(2,6-difluorobenzamido)phenyl)-5,6-dihydropyridine-1(2H)-carboxylate]

Second part, the compound before the results:

Row | SMILES | IC50 [nM]
4 | C=CCOC(=O)N1CCC(c2ccc(NC(=O)c3c(F)cccc3F)cc2)=C(COC(C)=O)C1 [Compound 3, allyl 3-(acetoxymethyl)-4-(4-(2,6-difluorobenzamido)phenyl)-5,6-dihydropyridine-1(2H)-carboxylate] | > 1000
5 | CC1=C(c2ccc(NC(=O)c3c(F)cccc3F)nc2)CN(C(=O)c2ccccn2)CC1 [Compound 4, 2,6-difluoro-N-(5-(4-methyl-1-picolinoyl-1,2,5,6-tetrahydropyridin-3-yl)pyridin-2-yl)benzamide hydrochloride] | 934
6 | CCOC(=O)N1CCC(c2ccc(NC(=O)c3c(F)cccc3F)cc2)=C(COC(C)=O)C1 [Compound 5, ethyl 3-(acetoxymethyl)-4-(4-(2,6-difluorobenzamido)phenyl)-5,6-dihydropyridine-1(2H)-carboxylate] | > 1000
